Measurements taken from patent publication US20060045953A1 (priority 2004, published 2006).
Read-outs that look alike come from different tables or passages of the source.

Molecular target: T1, hT1R1/hT1R3 umami receptor (Homo sapiens, UniProt Q7RTX0+Q7RTX1)
T1 construct: expressed in transfected cells; host or cells: HEK293 derivative stably expressing Gα15, clone I-17, expression induced with mifepristone
T1 sequence (Q7RTX1 21-841): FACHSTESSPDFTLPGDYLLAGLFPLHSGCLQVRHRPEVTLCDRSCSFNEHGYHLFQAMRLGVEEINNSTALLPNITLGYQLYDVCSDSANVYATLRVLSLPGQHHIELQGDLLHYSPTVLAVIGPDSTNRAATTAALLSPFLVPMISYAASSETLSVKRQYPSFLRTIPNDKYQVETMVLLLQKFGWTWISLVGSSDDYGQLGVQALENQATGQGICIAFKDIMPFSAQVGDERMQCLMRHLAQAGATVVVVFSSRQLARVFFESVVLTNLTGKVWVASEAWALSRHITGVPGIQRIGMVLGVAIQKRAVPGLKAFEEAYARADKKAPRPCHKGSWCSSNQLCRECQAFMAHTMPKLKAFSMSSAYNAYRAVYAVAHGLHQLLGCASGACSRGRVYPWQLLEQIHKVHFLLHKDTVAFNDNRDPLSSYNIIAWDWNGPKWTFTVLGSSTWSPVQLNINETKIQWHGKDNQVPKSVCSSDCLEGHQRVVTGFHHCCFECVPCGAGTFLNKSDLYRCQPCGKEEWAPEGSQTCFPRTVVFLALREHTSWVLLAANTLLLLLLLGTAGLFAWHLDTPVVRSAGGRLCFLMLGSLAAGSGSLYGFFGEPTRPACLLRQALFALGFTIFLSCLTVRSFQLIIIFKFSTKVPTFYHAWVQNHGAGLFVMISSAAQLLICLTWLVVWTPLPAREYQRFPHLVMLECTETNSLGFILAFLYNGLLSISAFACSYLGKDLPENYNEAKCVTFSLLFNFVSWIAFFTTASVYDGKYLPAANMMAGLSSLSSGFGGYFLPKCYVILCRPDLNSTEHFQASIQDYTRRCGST
T1 sequence (Q7RTX0 21-852): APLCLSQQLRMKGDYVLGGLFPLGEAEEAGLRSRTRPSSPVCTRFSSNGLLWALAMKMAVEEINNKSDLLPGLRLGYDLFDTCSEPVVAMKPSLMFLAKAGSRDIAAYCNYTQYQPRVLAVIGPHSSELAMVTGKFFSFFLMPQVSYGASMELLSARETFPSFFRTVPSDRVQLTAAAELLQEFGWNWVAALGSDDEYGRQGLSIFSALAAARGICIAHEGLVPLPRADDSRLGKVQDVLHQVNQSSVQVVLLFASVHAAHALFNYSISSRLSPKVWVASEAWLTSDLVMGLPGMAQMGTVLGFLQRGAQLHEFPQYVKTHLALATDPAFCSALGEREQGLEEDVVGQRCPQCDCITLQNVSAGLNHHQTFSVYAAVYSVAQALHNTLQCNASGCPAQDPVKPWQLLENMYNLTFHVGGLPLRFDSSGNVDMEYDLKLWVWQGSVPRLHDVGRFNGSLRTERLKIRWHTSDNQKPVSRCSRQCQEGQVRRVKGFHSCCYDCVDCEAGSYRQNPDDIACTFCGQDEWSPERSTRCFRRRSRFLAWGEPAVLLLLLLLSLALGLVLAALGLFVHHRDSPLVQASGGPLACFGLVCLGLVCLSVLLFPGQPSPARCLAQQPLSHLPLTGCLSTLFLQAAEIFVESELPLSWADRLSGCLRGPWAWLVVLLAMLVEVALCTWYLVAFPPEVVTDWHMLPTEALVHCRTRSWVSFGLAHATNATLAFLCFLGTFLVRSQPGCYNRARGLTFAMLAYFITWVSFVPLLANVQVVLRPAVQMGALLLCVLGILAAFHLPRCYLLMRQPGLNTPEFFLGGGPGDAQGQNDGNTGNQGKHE
Test: In vitro hT1R1/hT1R3 umami taste receptor activation assay (FLIPR, dose response)
Type: cell-based

[1] = Table C, Umami Ureas, read-out: Umami EC50
[2] = Table A, Umami Amides, read-out: Umami EC50
[3] = read-out: EC50 for activation of a hT1R1/hT1R3 umami receptor expressed in an HEK293 cell line

CCCC(CCC)NC(=O)Nc1ccc(OC)cc1Cl [Example C21, 1-(2-chloro-4-methoxyphenyl)-3-(heptan-4-yl)urea]
EC50 [1]: 110 nM

CCCC(CCC)NC(=O)c1ccc(OC)cc1O [Example A101, N-(heptan-4-yl)-2-hydroxy-4-methoxybenzamide]
EC50 [2]: 1160 nM

CCC(CC)NC(=O)c1ccc(OC)c(C)c1 [Example 119, 4-methoxy-3-methyl-N-(pentan-3-yl)benzamide]
EC50 [3]: 400 nM

COc1cc(C(=O)N[C@@H]2CCCc3ccccc32)nc(OC)n1 [Example A114, (R)-2,6-dimethoxy-N-(1,2,3,4-tetrahydronaphthalen-1-yl)pyrimidine 4-carboxamide]
EC50 [2]: 2350 nM

CCC(CC(C)C)NC(=O)c1cc2cc(C)ccc2o1 (centres unmarked) [Example A8, 5-methyl-N-(5-methylhexan-3-yl)benzofuran-2-carboxamide]
EC50 [2]: 500 nM

CCC(CC(C)C)NC(=O)c1ccc(C)c(C)c1 (centres unmarked) [Example 70, 3,4-dimethyl-N-(5-methylhexan-3-yl)benzamide]
EC50 [3]: 170 nM

CCCC(NC(=O)c1ccc(OC)c(C)c1)c1ccccc1 (centres unmarked) [Example 113, 4-Methoxy-3-methyl-N-(1-phenyl-butyl)-benzamide]
EC50 [3]: 2500 nM

CCOc1ccc(/C=C/C(=O)NC(CC)CC)cc1 [Example 82, 3-(4-Ethoxy-phenyl)-N-(1-ethyl-propyl)-acrylamide]
EC50 [3]: 1350 nM

CCC(CC)NC(=O)c1cc2cc(OC)ccc2o1 [Example A13, 5-methoxy-N-(pentan-3-yl)benzofuran-2-carboxamide]
EC50 [2]: 1140 nM

COC(=O)[C@@H](CC(C)C)NC(=O)c1ccc(C)c(OC)c1 [Example A73, (R)-methyl 2-(3-methoxy-4-methylbenzamido)-4-methylpentanoate]
EC50 [2]: 340 nM

CCCC(CC)NC(=O)c1ccc(OC)c(C)c1 (centres unmarked) [Example 12, N-(hexan-3-yl)-4-methoxy-3-methylbenzamide]
EC50 [3]: 120 nM

Cc1occc1CNC(=O)C(=O)NCCc1ccccn1 [Example 153, N-((2-Methylfuran-3-yl)methyl)-N′-(2-(pyridin-2-yl)ethyl)oxalamide]
EC50 [3]: 1820 nM

CCOc1ccc(NC(=O)c2cc(Cl)ccc2Cl)cc1 [Example A3, 2,5-dichloro-N-(4-ethoxyphenyl)benzamide]
EC50 [2]: 1080 nM

COC(=O)[C@@H](CC(C)C)NC(=O)/C=C/c1ccccc1 [Example D11, (R)-methyl 2-cinnamamido-4-methylpentanoate]
EC50 (Table D, Umami Acrylamides, read-out: Umami EC50): 1170 nM

CCCC(CCC)NC(=O)c1cccc(CC)c1 [Example A116, 3-ethyl-N-(heptan-4-yl)benzamide]
EC50 [2]: 10 nM

CCCC(CCC)NC(=O)c1ccc(OC)cc1 [Example A79, N-(heptan-4-yl)-4-methoxybenzamide]
EC50 [2]: 460 nM

COc1ccc([C@@H](C)NC(=O)c2ccc(OC)c(C)c2)cc1 [Example 117, 4-Methoxy-N-[1-(R)-(4-methoxy-phenyl)-ethyl]-3-methyl-benzamide]
EC50 [3]: 2800 nM

CCCC(CCC)NC(=O)Nc1ccccc1SC [Example C18, 1-(heptan-4-yl)-3-(2-(methylthio)phenyl)urea]
EC50 [1]: 260 nM

CCCC(CC(C)C)NC(=O)c1ccc2c(c1)OCO2 (centres unmarked) [Example 2, N-(2-methylheptan-4-yl)benzo[d][1,3]dioxole-5-carboxamide]
EC50 [3]: 220 nM

Cc1ccc(CCNC(=O)c2occc2C)cc1 [Example 120, 3-methyl-N-(p-tolylethyl)furan-2-carboxamide]
EC50 [3]: 6000 nM

CCCC(CCC)NC(=O)c1cc(COC)c(CC)o1 [Example A117, 5-ethyl-N-(heptan-4-yl)-4-(methoxymethyl)furan-2-carboxamide]
EC50 [2]: 30 nM

CSc1ccccc1NC(=O)NC(C(C)C)C(C)C [Example C14, 1-(2,4-dimethylpentan-3-yl)-3-(2-(methylthio)phenyl)urea]
EC50 [1]: 140 nM

CCCC(CCC)NC(=O)c1ccc2c(c1)CCO2 [Example A52, N-(heptan-4-yl)-2,3-dihydrobenzofuran-5-carboxamide]
EC50 [2]: 1650 nM

CC(C)Oc1ccccc1CNC(=O)C(=O)NCCc1ccccn1 [Example B4, N1-(2-isopropoxybenzyl)-N2-(2-(pyridin-2-yl)ethyl)oxalamide]
EC50 (Table B, Umami Oxalamides, read-out: Umami EC50): 1220 nM

CCCC(CC)NC(=O)c1cc2cc(OC)ccc2o1 (centres unmarked) [Example 29, N-(hexan-3-yl)-5-methoxybenzofuran-2-carboxamide]
EC50 [3]: 400 nM

O=C(NC1CCCc2ccccc21)c1ccc2c(c1)OCO2 (centres unmarked) [Example 7, N-(1,2,3,4-tetrahydronaphthalen-1-yl)benzo[d][1,3]dioxole-5-carboxamide]
EC50 [3]: 710 nM

COc1ccc(C(=O)N[C@H]2CCCc3ccccc32)cc1C [Example A109, (S)-4-methoxy-3-methyl-N-(1,2,3,4-tetrahydronaphthalen-1-yl)benzamide]
EC50 [2]: 80 nM

COc1ccc(CNC(=O)C(=O)NC(C)Cc2ccccn2)c(OC)c1 (centres unmarked) [Example 143, N-(2,4-Dimethoxybenzyl)-N′-(1-(Pyridin-2-yl)propan-2-yl)oxalamide]
EC50 [3]: 400 nM

COC(=O)C(CC(C)C)NC(=O)c1cc2cc(OC)ccc2o1 (stereo in doubt) [Example A6, 2-[(5-Methoxy-benzofuran-2-carbonyl)-amino]-4-methyl-pentanoic acid methyl ester]
EC50 [2]: 320 nM

CCc1ccc(CNC(=O)C(=O)NCCc2ccccn2)cc1 [Example 139, N-(4-Ethylbenzyl)-N′-(2-(pyridin-2-yl)ethyl)oxalamide]
EC50 [3]: 790 nM

O=C(NCCc1ccccn1)C(=O)NCc1ccc2occc2c1 [Example 140, N-(Benzofuran-5-ylmethyl)-N′-(2-(pyridin-2-yl)ethyl)oxalamide]
EC50 [3]: 1780 nM

CCC(NC(=O)c1cc2cc(OC)ccc2o1)C(C)C (centres unmarked) [Example A16, 5-methoxy-N-(2-methylpentan-3-yl)benzofuran-2-carboxamide]
EC50 [2]: 1180 nM

CCOc1ccc(NC(=O)NC2CCCCC2C)cc1 (centres unmarked) [Example C10, 1-(4-ethoxyphenyl)-3-(2-methylcyclohexyl)urea]
EC50 [1]: 1510 nM

COc1ccccc1/C=C/C(=O)NC1CCCCC1C (centres unmarked) [Example 89, 3-(2-Methoxy-phenyl)-N-(2-methyl-cyclohexyl)-acrylamide]
EC50 [3]: 3400 nM

CCCC(CCC)NC(=O)c1ccc(C)c(SC)c1 [Example 48, 4-methyl-3-methylsulfanyl-N-(1-propylbutyl)benzamide]
EC50 [3]: 210 nM

CCCC(CCC)NC(=O)c1cc(C)nn1C [Example 99, N-(heptan-4-yl)-1,3-dimethyl-1H-pyrazole-5-carboxamide]
EC50 [3]: 7800 nM

CC(C)C[C@@H](NC(=O)c1ccc2c(c1)OCO2)C(=O)N1CCCC1CO (stereo partly drawn) [Example 16, N-((R)-1-(2-(hydroxymethyl)pyrrolidin-1-yl)-4-methyl-1-oxopentan-2-yl)benzo[d][1,3]dioxole-5-carboxamide]
EC50 [3]: 3000 nM

COC[C@@H](CC(C)C)NC(=O)c1ccc(SC)c(C)c1 [Example A65, (R)-N-(1-methoxy-4-methylpentan-2-yl)-3-methyl-4-(methylthio)benzamide]
EC50 [2]: 290 nM

CCCC(CCC)NC(=O)c1ccc(Br)o1 [Example A30, 5-bromo-N-(heptan-4-yl)furan-2-carboxamide]
EC50 [2]: 490 nM

CCCC(CCC)NC(=O)c1cccc(OC)c1O [Example A84, N-(heptan-4-yl)-2-hydroxy-3-methoxybenzamide]
EC50 [2]: 530 nM

CCCC(NC(=O)c1ccc(OCC)c(C)c1)c1ccc(OC)cc1 (centres unmarked) [Example 116, 4-Ethoxy-N-[1-(4-methoxy-phenyl)-butyl]-3-methyl-benzamide]
EC50 [3]: 3900 nM
